Reference: patent US4414388A, “1-Oxo-1H-thiazolo[3,2-a]pyrimidine-2-carboxamides” (Pfizer Inc., priority 1981, dated 1983)

Tests used:
[1] = system: IgE; test: passive cutaneous anaphylaxis (PCA) test, oral, IgE (reaginic antiserum) site; format: in vivo, rat; settings: Table I, 1 mg./kg.
Description: The antiallergy property of the compounds of this invention is evaluated by the passive cutaneous anaphylaxis (PCA) test (Ovary, J. Immun., 81, 355, 1958). In the PCA test, normal animals are injected intradermally (i.d.) with antibodies contained in serum obtained from actively sensitized animals. The animals are then challenged intravenously with antigen mixed with a dye such as Evans' Blue. The increased capillary permeability caused by the antigen-antibody reaction causes the dye to leak from the site of the antibody injection. The test animals are then asphyxiated and the intensity of the reaction determined by measuring the diameter and intensity of the blue coloration on the inner surface of the animals' skin.
The PCA test is a measure of the anti-allergic (especially anti-asthmatic) activity of a compound. Compounds which inhibit a positive PCA test induced by the rat immunochemical counterpart of human immunoglobulin E (IgE), or reagin, are considered to have anti-allergic activity (C. Mota, Ann. N.Y. Acad. Sci., 103, 264 1963). (Reagin is primarily immunoglobulin E [IgE] and is the principal immunoglobulin responsible for allergic asthma, anaphylaxis, hay fever, food sensitivities and certain manifestations of drug sensitivities, although recent evidence ascribes to the IgG class of antibodies a significant role in the mediation of allergic diseases). Such compounds when administered to a sensitized subject, human or animal, prior to the time when the subject comes into contact with antigens or substances to which it is allergic, will prevent the allergic reaction which would otherwise occur. They, therefore, provide a method for the prophylactic treatment of allergy or anaphylactic reactions of a reagin mediated nature.
To put it another way, such compounds block the release of mediators resulting from the antigen-antibody (allergic) reaction as illustrated in the PCA test using rat homocytotropic antibody--a known correlate of human reaginic antibody. Inhibition of reaginic antigen-antibody reactions in rats, the test animal of the PCA test, is regarded as representative of inhibition of human reaginic antigen-antibody reactions which occur during allergic episodes.
The ability of agents to interfere with PCA reactions is measured in male Charles River Wistar rats, 170-210 g. Reaginic antiserum, rich in IgE antibodies, is prepared according to Petillo et al., Int. Arch. Allergy, 44, 309 (1973). Hyperimmune antiserum rich in IgG antibodies to hen egg albumin is prepared according to Orange et al., J. Exptl. Med., 127, 767 (1968). Forty-eight hours prior to antigen challenge, the reaginic antiserum is injected intradermally (i.d.) into the shaved skin of a normal rat's back; 5 hours before challenge the hyperimmune antisera is similarly injected. At a third site 60 mcg. histamine dihydrochloride and 0.5 mcg. serotonin creatinine sulfate are injected i.d. just prior to antigen challenge as a check for antihistaminic, antiserotonin and unspecific types of blockage; the compounds of the instant invention or saline are then administered i.v. and immediately followed by the challenge of 5 mg. egg albumen and 2.5 mg. Evans' Blue dye in saline. In the case of oral administration Evans' Blue dye and egg albumin are given 5 minutes after administration of the drug. Thirty minutes later the animals are asphyxiated using chloroform and the skin of the back removed and reversed for observation. A score is assigned each injection site equal to the product of the diameter of the site in mm. and a grade of 0.1, 0.5, 1, 2, 3 or 4 proportional to intensity of dye coloration. The scores for a given injection site are summed for each group of five animals and compared to the saline treated controls. The difference is expressed as percent blockage due to the compound employed. […]

[2] = system: inhaled histamine; test: bronchoconstrictive effects of inhaled histamine; format: in vivo, guinea pig; settings: 30 mg/kg i.p.
[3] = system: isolated guinea pig ileum; test: spasms of isolated guinea pig ileum; settings: 10^-8 to 10^-4 M
[4] = system: cold-restraint stress gastric ulcer; test: cold-restraint stressed rat assay; format: in vivo
Description: The effectiveness of the products of this invention as anticulcer agents is determined by the so-called cold-restraint stressed rat assay. In this test nonfasted female rats (Charles River C-D strain) weighing 70-140 gms. are administered the drug or carrier (control animals) intraperitoneally (in saline solution containing 1% carboxymethylcellulose and 0.1% Tween 80) or orally (in water) three hours before being lightly anesthetized with ether and taped in the supine position to individual sheets of plexiglass. After recovery from anesthesia, the restrained animals are positioned horizontally in a refrigerator maintained at 10°-12° C. and three hours later sacrificed by cervical dislocation. The abdomen of each rat is opened, the pylorus clamped, the stomach inflated with saline via an oral tube, the esophagus clamped and the stomach excised. The stomachs are placed in a 0.4% formaldehyde solution for approximately 30 seconds to harden the outer layers and facilitate examination. Each stomach is then cut open along the greater curvature and the glandular portion (hind stomach) examined for damage. The number of gastric erosions, their severity and the color of the stomachs is recorded. […]

[5] = system: dogs; test: toleration study in dogs, 7 days oral; format: in vivo, dog
Description: In toleration studies, III was given orally by gavage to dogs for a period of seven days at doses of 50, 150 and 300 mg/kg/day.

[6] = system: dogs; test: dogs, intravenous five days, serum enzymes; format: in vivo, dog; settings: i.v. five days at 1, 3, 10, 3 and 3 mg/kg
[7] = acute subcutaneous toleration in mice; settings: mouse, in vivo, sc; subcutaneous, mice
Description: (§1) Compound III was administered subcutaneously to mice at doses of 100, 300 or 1000 mg/kg.

[8] = system: mice; test: acute subcutaneous toleration in mice; settings: mouse, in vivo
Description: as §1

[9] = system: bone marrow; test: chromosomal damage in bone marrow of mice; format: in vivo, mouse; settings: single oral dose 40 mg/kg; 6, 12 or 24 hours
Description: Single oral doses of III, 40 mg/kg, were administered to groups of mice who were sacrificed 6, 12 or 24 hours later. […] From these findings, it is evident that III has no obvious mutagenic potential.

[10] = system: human lymphocytes; test: chromosomal breakage in human lymphocytes in vitro; format: cell-based; settings: 1000, 100, 10 or 0 μg/ml
[11] = system: point mutations; test: Ames test in vitro; format: cell-based
[12] = plasma concentration / oral absorption in dogs; format: in vivo, dog
Description: This is supported by the observations of plasma concentrations of 3 to 7 μg/ml one hour after oral administration of III, 50 to 300 mg/kg.

[13] = oral gavage 50, 150 and 300 mg/kg/day, seven days

SMILES: O=C(Nc1nnn[nH]1)c1cnc2sc3c(n2c1=O)CCCC3 [compound III, N-(5-tetrazolyl)-1-oxo-1H-cyclohexenothiazolo[3,2-a]pyrimidine-2-carboxamide]
- Oral Activity (% of Protection) of Amides in the PCA Test, IgE 1 mg./kg. [1]: 47%
- protection against bronchoconstrictive effects of inhaled histamine [2]: not protected
- antagonism of spasms of isolated guinea pig ileum induced with acetylcholine ([3]; acetylcholine): does not antagonize spasms
- antagonism of spasms of isolated guinea pig ileum induced with histamine ([3]; histamine): does not antagonize spasms
- antagonism of spasms of isolated guinea pig ileum induced with SRS-A ([3]; slow reacting substance of anaphylaxis (SRS-A)): does not antagonize spasms
- potency in the cold-restraint stress gastric ulcer procedure and the ethanol-induced rat ulcer assay, in words ([4]; oral): highly potent
- potency in the cold-restraint stressed rat assay ([4]; rat, in vivo): extremely potent
- emetic effect when administered by capsule after meals ([5]; capsule after, rather than before, meals): could be eliminated
- emesis [5, 13]: observed at all doses
- gross pathological changes [5, 13]: No gross pathological changes were observed
- microscopic examination of liver, kidney, heart and lung [5, 13]: did not reveal any changes
- serum enzyme levels [6]: remained normal
- LD50 [7]: > 1000 mg/kg
- symptoms or lethality [8]: No symptoms or lethality was observed
- chromosomal damage in bone marrow, single dose [9]: did not reveal any chromosomal damage
- chromosomal breakage in human lymphocytes [10]: failed to reveal any significant drug-induced chromosomal breakage
- point mutations, Ames test [11]: did not induce point mutations
- oral absorption, dog ([12]; oral suspensions or capsules): absorbed readily
- concentration at 1 h ([12]; plasma, dog, one hour, oral 50 to 300 mg/kg, suspensions or capsules, read-out: plasma concentration one hour after oral administration, dog): 9000 to 26000 ng/mL
